Measurements as given in patent publication US9555022B2, “Substituted triazolopyridines” (Bayer Intellectual Property GmbH, priority 2010, dated 2017).
Structures can show the parent of a compound that is named as a salt.

The compounds below were run against human full length recombinant Mps-1 kinase (Homo sapiens (Human), UniProt P33981) (assay: Mps-1 Kinase Assay (TR-FRET)). Settings: 10 μM ATP, 1 μM biotinylated peptide substrate, 60 min at 22° C., read-out: Mps-1 Inhibition, IC50 in M.
Type: biochemical
Description: The human kinase Mps-1 phosphorylates a biotinylated substrate peptide. Detection of the phosphorylated product is achieved by time-resolved fluorescence resonance energy transfer (TR-FRET) from Europium-labelled anti-phospho-Serine/Threonine antibody as donor to streptavidin labelled with cross-linked allophycocyanin (SA-XLent) as acceptor. Compounds are tested for their inhibition of the kinase activity.
N-terminally GST-tagged human full length recombinant Mps-1 kinase (purchased from Invitrogen, Karslruhe, Germany, cat. no PV4071) was used. As substrate for the kinase reaction a biotinylated peptide of the amino-acid sequence […] (C-terminus in amide form, purchased from Biosynthan GmbH, Berlin) was used.
The concentration of Mps-1 in the assay was adjusted to the activity of the enzyme lot and was chosen appropriate to have the assay in the linear range, typical enzyme concentrations were in the range of about 1 nM (final conc. in the 5 μl assay volume).
The resulting mixture was incubated 1 h at 22° C. to allow the binding of the phosphorylated peptide to the anti-phospho(Ser/Thr)-Europium-antibody. Subsequently the amount of phosphorylated substrate was evaluated by measurement of the resonance energy transfer from the Europium-labelled anti-phospho(Ser/Thr) antibody to the Streptavidin-XLent.

Chain of human full length recombinant Mps-1 kinase (P33981 whole entry): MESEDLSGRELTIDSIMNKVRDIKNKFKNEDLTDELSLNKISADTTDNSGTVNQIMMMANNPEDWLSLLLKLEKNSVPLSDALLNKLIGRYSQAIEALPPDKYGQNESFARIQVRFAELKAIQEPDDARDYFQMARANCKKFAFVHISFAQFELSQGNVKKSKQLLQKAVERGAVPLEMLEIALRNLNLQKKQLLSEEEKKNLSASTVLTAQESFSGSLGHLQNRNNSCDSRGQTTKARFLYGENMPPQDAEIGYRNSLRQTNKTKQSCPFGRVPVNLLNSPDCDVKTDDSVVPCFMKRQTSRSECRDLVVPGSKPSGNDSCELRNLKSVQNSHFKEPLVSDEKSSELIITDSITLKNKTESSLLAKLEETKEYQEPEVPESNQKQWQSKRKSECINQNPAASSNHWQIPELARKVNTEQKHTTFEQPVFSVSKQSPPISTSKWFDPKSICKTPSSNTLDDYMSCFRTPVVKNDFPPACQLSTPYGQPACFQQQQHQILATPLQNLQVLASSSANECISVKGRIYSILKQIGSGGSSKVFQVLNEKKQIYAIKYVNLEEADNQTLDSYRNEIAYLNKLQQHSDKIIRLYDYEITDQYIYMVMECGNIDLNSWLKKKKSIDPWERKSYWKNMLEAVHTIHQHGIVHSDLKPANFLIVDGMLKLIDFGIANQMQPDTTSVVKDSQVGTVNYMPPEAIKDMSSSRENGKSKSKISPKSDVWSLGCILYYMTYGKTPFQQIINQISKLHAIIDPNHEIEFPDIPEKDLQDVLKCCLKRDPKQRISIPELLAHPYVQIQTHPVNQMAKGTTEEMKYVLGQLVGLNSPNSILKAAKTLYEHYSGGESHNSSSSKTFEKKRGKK

O=C(Cc1ccc(F)cc1)Nc1ccc(-c2ccc3nc(Nc4ccc(C(=O)N5CC6(COC6)C5)cc4OCCF)nn3c2)cc1 [Example 02.30, N-[4-(2-{[2-(2-fluoroethoxy)-4-(2-oxa-6-azaspiro[3.3]hept-6-ylcarbonyl)phenyl]amino}[,2]triazolo[1,5-a]pyridin-6-yl)phenyl]-2-(4-fluorophenyl)acetamide] and O=C(Cc1ccc(F)cc1)Nc1ccc(-c2ccc3nc(Nc4ccc(C(=O)N5CC6(COC6)C5)cc4OC(F)(F)F)nn3c2)cc1 [Example 02.40, 2-(4-fluorophenyl)-N-[4-(2-{[4-(2-oxa-6-azaspiro[3.3]hept-6-ylcarbonyl)-2-(trifluoromethoxy)phenyl]amino}[,2]triazolo[1,5-a]pyridin-6-yl)phenyl]acetamide] cannot be ordered by IC50: ≤ 1 nM for the first, ≤ 1 nM for the second.

O=C(Cc1ccc(F)cc1)Nc1ccc(-c2ccc3nc(Nc4ccc(C(=O)N5CCOCC5)cc4OCC(F)F)nn3c2)cc1 [Example 02.31, N-[4-(2-{[2-(2,2-difluoroethoxy)-4-(morpholin-4-ylcarbonyl)phenyl]amino}[,2]-triazolo[1,5-a]pyridin-6-yl)phenyl]-2-(4-fluorophenyl)acetamide] and Cc1cc(C(=O)N2CCOCC2)ccc1Nc1nc2ccc(-c3ccc(NC(=O)Cc4ccc(F)cc4)cc3)cn2n1 [Example 02.39, 2-(4-fluorophenyl)-N-[4-(2-{[2-methyl-4-(morpholin-4-ylcarbonyl)phenyl]amino}[,2]-triazolo[1,5-a]pyridin-6-yl)phenyl]acetamide] cannot be ordered by IC50: ≤ 1 nM for the first, ≤ 1 nM for the second.

O=C(Cc1ccc(F)cc1)Nc1ccc(-c2ccc3nc(Nc4ccc(C(=O)N5CCOCC5)cc4C(F)(F)F)nn3c2)cc1 [Example 02.32, 2-(4-fluorophenyl)-N-[4-(2-{[4-(morpholin-4-ylcarbonyl)-2-(trifluoromethyl)phenyl]amino}[,2]-triazolo[1,5-a]pyridin-6-yl)phenyl]acetamide] and COc1ccc(C(=O)N2CCOCC2)cc1Nc1nc2ccc(-c3ccc(NC(=O)Cc4ccc(F)cc4)cc3)cn2n1 [Example 02.41, 2-(4-fluorophenyl)-N-[4-(2-{[2-methoxy-5-(morpholin-4-ylcarbonyl)phenyl]amino}[,2]-triazolo[1,5-a]pyridin-6-yl)phenyl]acetamide] cannot be ordered by IC50: ≤ 1 nM for the first, ≤ 1 nM for the second.

COc1cc(CN2CCOCC2)ccc1Nc1nc2ccc(-c3ccc(NC(=O)Cc4ccc(F)cc4)cc3)cn2n1 [Example 02.33, 2-(4-fluorophenyl)-N-[4-(2-{[2-methoxy-4-(morpholin-4-ylmethyl)phenyl]amino}[,2]-triazolo[1,5-a]pyridin-6-yl)phenyl]acetamide] and COc1cc(S(=O)(=O)N2CCOCC2)ccc1Nc1nc2ccc(-c3ccc(NC(=O)Cc4ccc(F)cc4)cc3)cn2n1 [Example 02.37, 2-(4-fluorophenyl)-N-[4-(2-{[2-methoxy-4-(morpholin-4-ylsulfonyl)phenyl]amino}[,2]-triazolo[1,5-a]pyridin-6-yl)phenyl]acetamide] cannot be ordered by IC50: ≤ 1 nM for the first, ≤ 1 nM for the second.

CCOc1cc(OC2CCN(C)CC2)ccc1Nc1nc2ccc(-c3ccc(NC(=O)Cc4ccc(F)cc4)cc3)cn2n1 [Example 02.34, N-{4-[2-({2-ethoxy-4-[(1-methylpiperidin-4-yl)oxy]phenyl}amino)[,2]triazolo[1,5-a]pyridin-6-yl]phenyl}-2-(4-fluorophenyl)acetamide] and COc1cc(OC2CCN(C)CC2)ccc1Nc1nc2ccc(-c3ccc(NC(=O)Cc4ccc(F)cc4)cc3)cn2n1 [Example 02.35, 2-(4-fluorophenyl)-N-{4-[2-({2-methoxy-4-[(1-methylpiperidin-4-yl)oxy]phenyl}amino)[,2]triazolo[1,5-a]pyridin-6-yl]phenyl}acetamide] cannot be ordered by IC50: ≤ 1 nM for the first, ≤ 1 nM for the second.

CSc1cc(OC2CCN(C)CC2)ccc1Nc1nc2ccc(-c3ccc(NC(=O)Cc4ccc(F)cc4)cc3)cn2n1 [Example 02.36, 2-(4-fluorophenyl)-N-{4-[2-({4-[(1-methylpiperidin-4-yl)oxy]-2-(methylsulfanyl)phenyl}amino)[,2]triazolo[1,5-a]pyridin-6-yl]phenyl}acetamide] and Cc1nc(N2CCCC2)ccc1Nc1nc2ccc(-c3ccc(NC(=O)Cc4ccc(F)cc4)cc3)cn2n1 [Example 02.43, 2-(4-fluorophenyl)-N-[4-(2-{[2-methyl-6-(pyrrolidin-1-yl)pyridin-3-yl]amino}[,2]-triazolo[1,5-a]pyridin-6-yl)phenyl]acetamide] cannot be ordered by IC50: ≤ 1 nM for the first, ≤ 1 nM for the second.

Cc1cc(C(=O)N2CC3(COC3)C2)ccc1Nc1nc2ccc(-c3ccc(NC(=O)Cc4ccc(F)cc4)cc3)cn2n1 [Example 02.38, 2-(4-fluorophenyl)-N-[4-(2-{[2-methyl-4-(2-oxa-6-azaspiro[3.3]hept-6-ylcarbonyl)phenyl]amino}[,2]triazolo[1,5-a]pyridin-6-yl)phenyl]acetamide] and Cc1nc(N2CCOCC2)ccc1Nc1nc2ccc(-c3ccc(NC(=O)Cc4ccc(F)cc4)cc3)cn2n1 [Example 02.42, 2-(4-fluorophenyl)-N-[4-(2-{[2-methyl-6-(morpholin-4-yl)pyridin-3-yl]amino}[,2]-triazolo[1,5-a]pyridin-6-yl)phenyl]acetamide] cannot be ordered by IC50: ≤ 1 nM for the first, ≤ 1 nM for the second.

Going from COc1cc(C(=O)N2CCOCC2)ccc1Nc1nc2ccc(-c3ccc(C(=O)NCC4CC4)cc3)cn2n1 [Example 03.01, N-(cyclopropylmethyl)-4-(2-{[2-methoxy-4-(morpholin-4-ylcarbonyl)phenyl]amino}[,2]-triazolo[1,5-a]pyridin-6-yl)benzamide] to CCOc1cc(C(=O)N2CCOCC2)ccc1Nc1nc2ccc(-c3ccc(C(=O)NCC4CC4)cc3)cn2n1 [Example 03.02, N-(cyclopropylmethyl)-4-(2-{[2-ethoxy-4-(morpholin-4-ylcarbonyl)phenyl]amino}[,2]-triazolo[1,5-a]pyridin-6-yl)benzamide], the IC50 falls from 2.71 nM to ≤ 1 nM. The second is the more potent here.

Compared with COc1cc(C2=NC(C)(C)CO2)ccc1Nc1nc2ccc(-c3ccc(C(=O)NCC4CC4)cc3)cn2n1 [Example 03.03, N-(cyclopropylmethyl)-4-(2-{[4-(4,4-dimethyl-4,5-dihydro-1,3-oxazol-2-yl)-2-methoxyphenyl]amino}[,2]-triazolo[1,5-a]pyridin-6-yl)benzamide], COc1cc(C(=O)N2CC3(COC3)C2)ccc1Nc1nc2ccc(-c3ccc(C(=O)NCC4CC4)cc3)cn2n1 [Example 03.07, N-(cyclopropylmethyl)-4-(2-{[2-methoxy-4-(2-oxa-6-azaspiro[3.3]hept-6-ylcarbonyl)phenyl]amino}[,2]triazolo[1,5-a]pyridin-6-yl)benzamide] is lower in IC50: 5.51 nM for the first, ≤ 1 nM for the second. The second is the more potent here.

First: CCOc1cc(C(=O)NC2CCN(C)CC2)ccc1Nc1nc2ccc(-c3ccc(C(=O)NCC4CC4)cc3)cn2n1 [Example 03.04, 4-[(6-{4-[(cyclopropylmethyl)carbamoyl]phenyl}[,2]triazolo[1,5-a]pyridin-2-yl)amino]-3-ethoxy-N-(1-methylpiperidin-4-yl)benzamide]
Second: COc1cc(N2CCN(C)CC2)ccc1Nc1nc2ccc(-c3ccc(C(=O)NCC4CC4)cc3)cn2n1 [Example 03.05, N-(cyclopropylmethyl)-4-(2-{[2-methoxy-4-(4-methylpiperazin-1-yl)phenyl]amino}[,2]-triazolo[1,5-a]pyridin-6-yl)benzamide trifluoroacetate]
The IC50 of the first is lower: ≤ 1 nM for the first, 6.33 nM for the second. The first is the more potent here.

O=C(NCC1CC1)c1ccc(-c2ccc3nc(Nc4ccc(C(=O)N5CCOCC5)cc4OCC(F)(F)F)nn3c2)cc1 [Example 03.06, N-(cyclopropylmethyl)-4-(2-{[4-(morpholin-4-ylcarbonyl)-2-(2,2,2-trifluoroethoxy)phenyl]amino}[,2]-triazolo[1,5-a]pyridin-6-yl)benzamide] and CCOc1cc(C(=O)N2CCOCC2)ccc1Nc1nc2ccc(-c3ccc(C(=O)NCc4ccc(F)cc4)cc3)cn2n1 [Example 04.02, 4-(2-{[2-Ethoxy-4-(morpholin-4-ylcarbonyl)phenyl]amino}[,2]-triazolo[1,5-a]pyridin-6-yl)-N-(4-fluorbenzyl)benzamid] cannot be ordered by IC50: ≤ 1 nM for the first, ≤ 1 nM for the second.

COc1cc(C(=O)N2CCOCC2)ccc1Nc1nc2ccc(-c3ccc(C(=O)NCc4ccc(F)cc4)cc3)cn2n1 [Example 04.01, N-(4-Fluorbenzyl)-4-(2-{[2-methoxy-4-(morpholin-4-ylcarbonyl)phenyl]amino}[,2]-triazolo[1,5-a]pyridin-6-yl)benzamid] and COc1cc(N2CCOC2=O)ccc1Nc1nc2ccc(-c3ccc(C(=O)NCc4ccc(F)cc4)cc3)cn2n1 [Example 04.03, N-(4-fluorobenzyl)-4-(2-{[2-methoxy-4-(2-oxo-1,3-oxazolidin-3-yl)phenyl]amino}[,2]-triazolo[1,5-a]pyridin-6-yl)benzamide] cannot be ordered by IC50: ≤ 1 nM for the first, ≤ 1 nM for the second.

CCOc1cc(N2CCOC2=O)ccc1Nc1nc2ccc(-c3ccc(C(=O)NCc4ccc(F)cc4)cc3)cn2n1 [Example 04.04, 4-(2-{[2-ethoxy-4-(2-oxo-1,3-oxazolidin-3-yl)phenyl]amino}[,2]triazolo[1,5-a]pyridin-6-yl)-N-(4-fluorobenzyl)benzamide] and COc1cc(C2=NCCO2)ccc1Nc1nc2ccc(-c3ccc(C(=O)NCc4ccc(F)cc4)cc3)cn2n1 [Example 04.05, 4-(2-{[4-(4,5-dihydro-1,3-oxazol-2-yl)-2-methoxyphenyl]amino}[,2]-triazolo[1,5-a]pyridin-6-yl)-N-(4-fluorobenzyl)benzamide] cannot be ordered by IC50: ≤ 1 nM for the first, ≤ 1 nM for the second.
